Assay results taken from ChEMBL document CHEMBL4184209, “Identification and initial optimization of inhibitors of Clostridium difficile (C. difficile) toxin B (TcdB)” (Bioorg Med Chem Lett, 2018).
The source made the active and inactive calls.

How the values were obtained:
[1] = test system: Limosilactobacillus reuteri; test: Effect on growth of Lactobacillus reuteri at 0.5 to 100 uM incubated for 24 hrs under anaerobic conditions by spectrophotometry; assay type: organism-based
[2] = molecular target: T1, Toxin B (Clostridioides difficile, UniProt P18177); test: Inhibition of C-terminal 6-His tagged recombinant Clostridium difficile toxin B catalytic fragment (Met1 to Leu543 residues) assessed as reduction in glucosyltransferase domain UDP-glucose hydrolysis activity using UDP-glucose and ADP Alexa633 tracer incubated fore 3 hrs by fluorescence polarization assay
[3] = test system: Bifidobacterium longum; test: Effect on growth of Bifidobacterium longum at 0.5 to 100 uM incubated for 24 hrs under anaerobic conditions by spectrophotometry; assay type: organism-based
[4] = test system: Clostridioides difficile; test: Effect on growth of Clostridium difficile at 0.5 to 100 uM incubated for 24 hrs under anaerobic conditions by spectrophotometry; assay type: functional, organism-based
[5] = test system: Bacteroides fragilis; test: Effect on growth of Bacteroides fragilis at 0.5 to 100 uM incubated for 48 hrs under anaerobic conditions by spectrophotometry; assay type: organism-based
[6] = Stability in mouse liver microsomes assessed as parent compound remaining level incubated for 15 mins; assay type: ADME, microsome; details: read-out: Stability
[7] = Stability in human liver microsomes assessed as parent compound remaining level incubated for 15 mins; assay type: ADME, microsome; details: read-out: Stability
[8] = molecular target: T1, Toxin B; test: Inhibition of Clostridium difficile toxin B […] assessed as reduction in caspase 3/7 activation pre-incubated for 1 hr before TcdB addition by luminescence based assay1; assay type: cell-based

T1 sequence (P18177 whole entry, the tested form may be a part): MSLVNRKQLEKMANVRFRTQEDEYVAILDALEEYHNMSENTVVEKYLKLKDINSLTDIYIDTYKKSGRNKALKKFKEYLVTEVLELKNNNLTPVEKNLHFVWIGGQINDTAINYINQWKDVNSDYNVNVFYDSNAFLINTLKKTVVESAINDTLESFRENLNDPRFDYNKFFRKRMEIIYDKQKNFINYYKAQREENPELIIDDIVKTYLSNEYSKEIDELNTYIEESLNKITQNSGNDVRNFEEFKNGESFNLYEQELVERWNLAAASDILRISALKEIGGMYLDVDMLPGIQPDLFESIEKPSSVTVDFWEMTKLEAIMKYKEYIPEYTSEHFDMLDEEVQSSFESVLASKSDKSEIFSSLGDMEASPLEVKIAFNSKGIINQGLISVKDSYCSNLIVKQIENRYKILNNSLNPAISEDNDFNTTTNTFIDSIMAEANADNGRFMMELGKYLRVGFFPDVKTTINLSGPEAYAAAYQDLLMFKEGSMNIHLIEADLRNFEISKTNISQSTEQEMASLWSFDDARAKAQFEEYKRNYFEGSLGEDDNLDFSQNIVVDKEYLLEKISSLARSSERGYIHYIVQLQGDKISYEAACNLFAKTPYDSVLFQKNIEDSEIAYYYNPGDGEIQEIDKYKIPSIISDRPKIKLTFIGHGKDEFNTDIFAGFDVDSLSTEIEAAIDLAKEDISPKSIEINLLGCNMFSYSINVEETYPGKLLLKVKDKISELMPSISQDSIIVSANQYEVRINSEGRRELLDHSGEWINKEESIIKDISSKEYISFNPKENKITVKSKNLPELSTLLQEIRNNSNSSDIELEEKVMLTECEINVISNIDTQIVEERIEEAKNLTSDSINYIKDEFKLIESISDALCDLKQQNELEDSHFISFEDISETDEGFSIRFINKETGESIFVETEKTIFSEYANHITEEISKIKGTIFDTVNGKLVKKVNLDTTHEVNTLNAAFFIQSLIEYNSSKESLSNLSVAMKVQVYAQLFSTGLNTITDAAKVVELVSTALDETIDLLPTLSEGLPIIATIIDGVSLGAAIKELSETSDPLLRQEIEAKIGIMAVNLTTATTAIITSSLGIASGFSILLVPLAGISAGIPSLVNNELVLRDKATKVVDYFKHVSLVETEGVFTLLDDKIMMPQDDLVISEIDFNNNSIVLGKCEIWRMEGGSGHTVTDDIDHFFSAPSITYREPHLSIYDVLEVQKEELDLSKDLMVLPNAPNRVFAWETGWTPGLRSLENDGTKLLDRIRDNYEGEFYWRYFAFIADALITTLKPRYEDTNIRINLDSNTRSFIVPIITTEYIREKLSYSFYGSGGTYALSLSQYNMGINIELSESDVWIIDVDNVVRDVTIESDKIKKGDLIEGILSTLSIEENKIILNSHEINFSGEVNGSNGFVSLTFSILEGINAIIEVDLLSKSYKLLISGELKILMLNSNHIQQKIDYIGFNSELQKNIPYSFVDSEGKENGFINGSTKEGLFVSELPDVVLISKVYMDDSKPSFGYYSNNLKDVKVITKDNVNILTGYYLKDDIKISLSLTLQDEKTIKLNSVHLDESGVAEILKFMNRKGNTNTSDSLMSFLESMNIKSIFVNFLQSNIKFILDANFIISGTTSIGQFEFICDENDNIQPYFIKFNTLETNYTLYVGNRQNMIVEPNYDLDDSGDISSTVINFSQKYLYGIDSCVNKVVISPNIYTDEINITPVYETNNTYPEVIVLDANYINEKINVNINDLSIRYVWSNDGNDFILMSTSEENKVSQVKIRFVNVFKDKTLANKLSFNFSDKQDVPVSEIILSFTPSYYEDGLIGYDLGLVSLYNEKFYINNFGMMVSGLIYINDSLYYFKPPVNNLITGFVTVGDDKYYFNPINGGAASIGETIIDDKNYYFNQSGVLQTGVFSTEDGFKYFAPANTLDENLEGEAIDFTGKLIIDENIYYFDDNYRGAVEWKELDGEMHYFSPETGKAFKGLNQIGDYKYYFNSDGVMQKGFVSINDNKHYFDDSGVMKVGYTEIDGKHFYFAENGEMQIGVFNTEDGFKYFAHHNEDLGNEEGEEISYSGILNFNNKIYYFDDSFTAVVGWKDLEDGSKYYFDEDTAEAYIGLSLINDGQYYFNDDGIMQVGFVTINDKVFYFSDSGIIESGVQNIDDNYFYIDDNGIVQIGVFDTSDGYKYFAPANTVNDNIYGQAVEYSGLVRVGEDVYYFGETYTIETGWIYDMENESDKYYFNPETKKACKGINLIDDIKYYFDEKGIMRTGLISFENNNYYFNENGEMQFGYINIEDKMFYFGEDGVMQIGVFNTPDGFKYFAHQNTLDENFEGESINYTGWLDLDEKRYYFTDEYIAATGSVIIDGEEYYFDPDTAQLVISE

SMILES | Activity [1] | IC50 [2] [µM] | Activity [3] | Activity [4] | Activity [5] | remaining at 0.25 h [6] [%] | remaining at 0.25 h [7] [%] | IC50 [8] [µM]
O=C(O)c1ccc(CN2C(=O)c3ccc(Cl)cc3NC(=O)[C@H]2Cc2ccccc2F)cc1 | Non-Toxic | 30 | Non-Toxic | inactive | Non-Toxic | – | – | –
O=C(O)c1ccc(CN2C(=O)c3ccc(Cl)cc3NC(=O)[C@H]2Cc2ccccn2)cc1 | Non-Toxic | 0.24 | Non-Toxic | inactive | Non-Toxic | – | – | –
O=C(O)c1ccc(CN2C(=O)c3ccccc3NC(=O)[C@H]2Cc2cccnc2)cc1 | Non-Toxic | 46 | Non-Toxic | inactive | Non-Toxic | – | – | –
O=C(O)c1ccc(CN2C(=O)c3ccc(Cl)cc3NC(=O)[C@H]2Cc2ccc(O)cc2)cc1 | Non-Toxic | 2 | Non-Toxic | inactive | Non-Toxic | – | – | –
O=C(Nc1ccncc1)c1ccc(CN2C(=O)c3ccc(Cl)cc3NC(=O)[C@H]2Cc2cccnc2)cc1 | Non-Toxic | > 80 | Non-Toxic | inactive | Non-Toxic | – | – | –
O=C(O)c1ccc(CN2C(=O)c3ccc(Cl)cc3NC(=O)[C@H]2Cc2ccc(Cl)cc2)cc1 | Non-Toxic | 17 | Non-Toxic | inactive | Non-Toxic | – | – | –
NC(=O)c1ccc(CN2C(=O)c3ccc(Cl)cc3NC(=O)[C@@H]2Cc2ccc(Cl)c(Cl)c2)cc1 | Non-Toxic | 16 | Non-Toxic | inactive | Non-Toxic | – | – | –
Cc1cc(NC(=O)c2ccc(CN3C(=O)c4ccc(Cl)cc4NC(=O)[C@H]3Cc3cccnc3)cc2)no1 | Non-Toxic | 0.05 | Non-Toxic | inactive | Non-Toxic | 31 | 100 | 19
O=C(O)c1ccc(CN2C(=O)c3ccc(Cl)cc3NC(=O)[C@H]2CCc2ccccc2)cc1 | Non-Toxic | 23 | Non-Toxic | inactive | Non-Toxic | – | – | –
COC(=O)c1ccc(CN2C(=O)c3ccc(Cl)cc3NC(=O)[C@H]2Cc2cccnc2)cc1 | Non-Toxic | > 80 | Non-Toxic | inactive | Non-Toxic | – | – | –
O=C(O)c1ccc(CN2C(=O)c3ccc(Cl)cc3NC(=O)[C@H]2CC2CCCCC2)cc1 | Non-Toxic | 84 | Non-Toxic | inactive | Non-Toxic | – | – | –
O=C(O)c1ccc(CN2C(=O)c3ccc(Cl)cc3NC(=O)[C@H]2Cc2cccc(Cl)c2)cc1 | Non-Toxic | 1.6 | Non-Toxic | inactive | Non-Toxic | – | – | –
CN1C(=O)[C@@H](Cc2cccnc2)N(Cc2ccc(C(=O)O)cc2)C(=O)c2ccc(Cl)cc21 | Non-Toxic | > 80 | Non-Toxic | inactive | Non-Toxic | – | – | –
O=C(O)c1ccc(CN2C(=O)c3ccc(Cl)cc3NC(=O)[C@H]2Cc2nccs2)cc1 | Non-Toxic | 2.3 | Non-Toxic | inactive | Non-Toxic | – | – | –
Cc1ccc2c(c1)NC(=O)[C@@H](Cc1ccc(Cl)c(Cl)c1)N(Cc1ccc(C(=O)O)cc1)C2=O | Non-Toxic | 12 | Non-Toxic | inactive | Non-Toxic | – | – | –
Cc1ccccc1C[C@@H]1C(=O)Nc2cc(Cl)ccc2C(=O)N1Cc1ccc(C(=O)O)cc1 | Non-Toxic | 3.9 | Non-Toxic | inactive | Non-Toxic | – | – | –
O=C(O)c1ccc(CN2C(=O)c3ccc(Cl)cc3NC(=O)[C@@H]2Cc2ccc(Cl)c(Cl)c2)cc1 | Non-Toxic | 2.1 | Non-Toxic | inactive | Non-Toxic | – | – | –
O=C(O)c1ccc(CN2C(=O)c3ccc(Cl)cc3NC(=O)[C@H]2c2ccccc2)cc1 | Non-Toxic | > 80 | Non-Toxic | inactive | Non-Toxic | – | – | –
CC(C)C[C@@H]1C(=O)Nc2cc(Cl)ccc2C(=O)N1Cc1ccc(C(=O)O)cc1 | Non-Toxic | > 80 | Non-Toxic | inactive | Non-Toxic | – | – | –

SMILES | Activity [1] | IC50 [2] [µM] | Activity [3] | Activity [4] | Activity [5] | remaining at 0.25 h [6] [%] | remaining at 0.25 h [7] [%] | IC50 [8] [µM]
Cc1ccc(C[C@@H]2C(=O)Nc3cc(Cl)ccc3C(=O)N2Cc2ccc(C(=O)O)cc2)cc1 | Non-Toxic | 32 | Non-Toxic | inactive | Non-Toxic | – | – | –
O=C(O)c1ccc(CN2C(=O)c3ccc(Cl)cc3NC(=O)[C@@H]2Cc2ccccn2)cc1 | Non-Toxic | 0.5 | Non-Toxic | inactive | Non-Toxic | – | – | –
O=C(O)c1ccc(CN2C(=O)c3ccc(Cl)cc3NC(=O)[C@H]2Cc2cccnc2)cc1 | Non-Toxic | 0.77 | Non-Toxic | inactive | Non-Toxic | – | – | –
O=C(O)c1ccc(CN2C(=O)c3ccccc3NC(=O)[C@H]2Cc2ccc(Cl)c(Cl)c2)cc1 | Non-Toxic | 2.1 | Non-Toxic | inactive | Non-Toxic | – | – | –
O=C(O)c1ccc(CN2C(=O)c3ccc(Cl)cc3NC(=O)C2Cc2cnccn2)cc1 (racemic) | Non-Toxic | 3.1 | Non-Toxic | inactive | Non-Toxic | – | – | –
O=C(O)c1ccc(CN2C(=O)c3cccc(Cl)c3NC(=O)[C@H]2Cc2cccnc2)cc1 | Non-Toxic | 69 | Non-Toxic | inactive | Non-Toxic | – | – | –
N#Cc1cccc(C[C@@H]2C(=O)Nc3cc(Cl)ccc3C(=O)N2Cc2ccc(C(=O)O)cc2)c1 | Non-Toxic | 6.2 | Non-Toxic | inactive | Non-Toxic | – | – | –
O=C(O)c1ccc(CN2C(=O)c3ccc(F)cc3NC(=O)[C@H]2Cc2cccnc2)cc1 | Non-Toxic | 8.6 | Non-Toxic | inactive | Non-Toxic | – | – | –
O=C(O)c1ccc(CN2C(=O)c3ccc(Cl)cc3NC(=O)[C@H]2Cc2ccncc2)cc1 | Non-Toxic | 18 | Non-Toxic | inactive | Non-Toxic | – | – | –
O=C(O)c1ccc(CN2C(=O)c3ccc(Cl)cc3NC(=O)[C@H]2Cc2ccccc2)cc1 | Non-Toxic | 6.3 | Non-Toxic | inactive | Non-Toxic | – | – | –
COc1ccc2c(c1)NC(=O)[C@@H](Cc1cccnc1)N(Cc1ccc(C(=O)O)cc1)C2=O | Non-Toxic | 2.5 | Non-Toxic | inactive | Non-Toxic | – | – | –
C[C@@H]1C(=O)Nc2cc(Cl)ccc2C(=O)N1Cc1ccc(C(=O)O)cc1 | Non-Toxic | 21 | Non-Toxic | inactive | Non-Toxic | – | – | –
O=C(Nc1ncccn1)c1ccc(CN2C(=O)c3ccc(Cl)cc3NC(=O)[C@H]2Cc2cccnc2)cc1 | Non-Toxic | 0.018 | Non-Toxic | inactive | Non-Toxic | 88 | 100 | –
Cc1cccc(C[C@@H]2C(=O)Nc3cc(Cl)ccc3C(=O)N2Cc2ccc(C(=O)O)cc2)c1 | Non-Toxic | 4.4 | Non-Toxic | inactive | Non-Toxic | – | – | –
O=C(O)c1ccc(CN2C(=O)c3ccc(Cl)cc3NC(=O)[C@@H]2Cc2ccc(O)cc2)cc1 | Non-Toxic | 16 | Non-Toxic | inactive | Non-Toxic | – | – | –
O=C(Nc1cccnc1)c1ccc(CN2C(=O)c3ccc(Cl)cc3NC(=O)[C@H]2Cc2cccnc2)cc1 | Non-Toxic | > 80 | Non-Toxic | inactive | Non-Toxic | – | – | –
O=C(O)c1ccc(CN2C(=O)c3ccc(Cl)cc3NC(=O)[C@H]2Cc2ccccc2Cl)cc1 | Non-Toxic | 2.3 | Non-Toxic | inactive | Non-Toxic | – | – | –
O=C(O)c1ccc(CN2C(=O)c3cc(Cl)ccc3NC(=O)[C@H]2Cc2cccnc2)cc1 | Non-Toxic | > 80 | Non-Toxic | inactive | Non-Toxic | – | – | –
O=C(Nc1ccccc1)c1ccc(CN2C(=O)c3ccc(Cl)cc3NC(=O)[C@H]2Cc2cccnc2)cc1 | Non-Toxic | 22 | Non-Toxic | inactive | Non-Toxic | – | – | –
